# Biological target: T1, PAD4 (Protein arginine deiminase 4) (Homo sapiens, UniProt Q9UM07)
# T1 construct: gene PADI4
# Assay: colorimetric PAD4 enzyme assay, citrullination of BAEE
# Assay type: biochemical
# T1 sequence (Q9UM07 whole entry): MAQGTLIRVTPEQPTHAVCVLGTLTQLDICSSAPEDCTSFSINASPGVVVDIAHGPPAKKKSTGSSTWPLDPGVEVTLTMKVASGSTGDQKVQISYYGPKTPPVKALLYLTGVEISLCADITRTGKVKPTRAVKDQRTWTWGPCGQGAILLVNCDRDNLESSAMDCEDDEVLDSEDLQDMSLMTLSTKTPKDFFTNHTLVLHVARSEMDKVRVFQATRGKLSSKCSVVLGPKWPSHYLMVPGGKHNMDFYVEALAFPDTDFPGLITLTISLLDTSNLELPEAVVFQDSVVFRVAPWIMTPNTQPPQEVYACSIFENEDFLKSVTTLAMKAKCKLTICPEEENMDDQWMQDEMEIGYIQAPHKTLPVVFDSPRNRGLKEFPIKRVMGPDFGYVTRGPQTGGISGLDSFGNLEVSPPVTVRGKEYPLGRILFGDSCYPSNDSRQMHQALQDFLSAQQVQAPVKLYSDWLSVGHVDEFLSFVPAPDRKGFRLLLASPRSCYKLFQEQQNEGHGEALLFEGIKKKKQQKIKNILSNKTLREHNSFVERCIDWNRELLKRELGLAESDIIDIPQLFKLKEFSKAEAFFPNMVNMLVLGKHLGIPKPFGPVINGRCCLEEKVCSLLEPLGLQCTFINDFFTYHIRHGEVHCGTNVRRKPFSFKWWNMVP
structure (smiles),measurement,value
CN(C)c1ccc2cc(C(=O)N[C@@H](CCCNC(=N)CCl)C(=O)NCc3ccccc3)ccc2c1 [YW3-56],IC50,4.1 ± 0.28 µM

# Reference: article PMC12655338, “Reversing the Warburg Effect: YW3-56 Induces Leukemia Differentiation via AKT-Mediated Glucose Metabolic Reprogramming” (Pharmaceuticals, 2025)
